Data from US20200038514A1, “FOLATE CONJUGATE FOR USE IN TARGETING TUMOR ASSOCIATED MACROPHAGES” (ENDOCYTE, INC., priority 2016, published 2020).

Columns and labels:
[1] = target: T1, folate receptor (Homo sapiens, UniProt P15328); experiment: Relative affinity assay ([3H]FA displacement on KB cells); type: binding
T1 construct: FR-positive KB cells were seeded in 24-well Falcon plates and allowed to form adherent monolayers; endogenous in cells; host or cells: KB cells
Method: FR-positive KB cells were seeded in 24-well Falcon plates and allowed to form adherent monolayers (>90% confluent) overnight in FFRPMI/HIFCS. Spent incubation medium was replaced with FFRPMI supplemented with 10% HIFCS and containing 100 nmol/L of [^3H]FA in the absence and presence of increasing concentrations of unlabeled FA or the test conjugate. Cells were incubated for 1 hour at 37° C. and then rinsed thrice with 0.5 mL PBS. Five hundred microliters of 1% SDS in PBS were added to each well; after 5 min, cell lysates were collected, transferred to individual vials containing 5 mL of scintillation cocktail, and then counted for radioactivity.
Cells exposed to only the [^3H]FA in FFRPMI (no competitor) were designated as negative controls, whereas cells exposed to the [^3H]FA plus 1 mmol/L unlabeled FA served as positive controls. Disintegrations per minute (DPM) measured in the latter samples (representing nonspecific binding of label) were subtracted from the DPM values from all samples.

[2] = system: 4T1p tumor (FRα-negative); experiment: Single-agent activity in vivo, 4T1p mammary tumors; parameters: species or system mice; conditions: 0.2 μmol/kg i.v., BIW×3 doses
Text: Female Balb/c mice (4T1p, 4T1-C12) were purchased from Envigo (Indianapolis, Ind.) and used when they reached 6-8 weeks of age. The mice were fed a folate-deficient diet (TestDiet, St. Louis, Mo.) on the day of arrival.
Solid tumors in Balb/c mice were generated by subcutaneous implantation of cultured cells at 5×10^5 (4T1p) and 2×10^6 (4T1-C12) per animal in the mammary region.
Starting on day 0, mice with mammary 4T1p (˜78.3±12.1 mm^3) and 4T1-C12 (˜70.1±14.1 mm^3) were scheduled to receive Conjugate 5 at 200 nmol/kg, biweekly for two weeks. 4T1p tumor bearing mice received a total of 3 doses only and 4T1-C12 tumor bearing mice received a total of 4 doses as planned. Mice were weighed and measured for tumor size 3 times a week. The tumor volumes were calculated by the following formula: V=0.5×a×b^2, where a is the longest axis across the tumor, and b is the shorter axis perpendicular to a. The animals were euthanized when the tumor volume reached ˜1500 mm^3. Mice were also monitored closely for the evidence of toxicity such as respiratory distress, mobility, weight loss, diarrhea, hunched posture, and failure to eat. The last Conjugate 5 dose in the 4T1p tumor-bearing mice was skipped due to weight loss.

[3] = system: TNBC PDX tumor; experiment: In vivo activity against triple negative breast tumors (FIG. 10); parameters: species or system mice; conditions: Conjugate 5 0.27 μmol/kg BIW two weeks; erubulin mesylate 1.0 μmol/kg SIW two weeks
Method: (§1) Mice were maintained and tumor volumes were measures according to Method 3.
(§2) Primary human TNBC model ST502 (2-4 mm in diameter) or primary human TNBC model ST738 (2-4 mm in diameter) were inoculated subcutaneously at the right flank of each mouse. Mice were randomized into experimental groups of 7 mice each and test articles were injected through the lateral tail vein under sterile conditions in a volume of […] of phosphate-buffered saline (PBS).

[4] = system: ST502 TNBC PDX tumors; experiment: In vivo activity against triple negative breast tumors (FIG. 5); parameters: species or system mice
Method: as §1, §2

[5] = system: Calf thymus DNA (CT-DNA); experiment: DNA crosslinking assay (ethidium bromide fluorescence); type: biochemical; conditions: 1.1 to 75 μM, 37° C. 2 hours
Method: Calf thymus DNA (CT-DNA) was combined with increasing concentrations of Conjugate 5 (1.1 to 75 μM) or Conjugate 5+/−DTT. These solutions were incubated at 37° C. for 2 hours. The solutions were then mixed with ethidium bromide and incubated for 2 hours at room temperature. Fluorescence (Ex: 535 nm, Em: 605 nm) from these samples was measured on the Fluoroskan II fluorimeter. Next, the samples were heated to 104° C. for 5 minutes, cooled on ice for 5 minutes, kept at RT for 15 minutes and fluorescence measured. % crosslinking of each sample was calculated using the fluorescence values from the positive and negative controls.

[6] = system: 4T1-C12 tumor cells; experiment: XTT cell viability assay, 4T1-C12; type: cell-based, mouse; conditions: FRα-positive 4T1-C12, 2 hours exposure, 96 hour chase
Method: (§3) The FRα− and FRα+ expressing cell lines utilized to evaluate Conjugate 5 activity in-vitro and/or ex-vivo studies were (1) 4T1p, a mouse breast cancer cell line that resembles triple negative breast cancer in humans, (2) 4T1-C12, 4T1p stably transfected with a mouse FRa, and (3) IGROV1, a human ovarian carcinoma cell line that expresses the human FRα. 4T1p and 4T1-C12 cells were grown respectively in a folate-replete or folate-free RPMI1640 medium (Gibco BRL) (FFRPMI) containing 10% heat-inactivated fetal calf serum (HIFCS) and antibiotics, and maintained under a 5% CO2 atmosphere using standard cell culture techniques. IGROV1 cells were grown in the same medium as 4T1-C12.
(§4) 4T1p and 4T1-C12 tumor cells in 96-well plates (20,000 cells/well) were treated with 10-fold serial dilutions of Conjugate 5 (100 nM) in FFRPMI medium. After a 2 hour exposure, the drug-containing media were replaced and the cells were washed and allowed to incubate further for 96 hours. The cell viability was assessed by adding XTT (2,3-bis(2-methoxy-4-nitro-5-sulfo-phenyl)-2H-tetrazolium-5-carboxanilide) to the culture medium for 2 hours following the manufacturer's instructions. All results were expressed as % absorbance (minus background) relative to the untreated control cells.

[7] = system: KB-CR2000 (platin resistant) tumor; experiment: In vivo activity against platinum resistant tumors; parameters: species or system mice; conditions: Conjugate 5 0.5 μmol/kg SIW two weeks; EC1456 2.0 μmol/kg BIW two weeks; n=4
Method: as §1
KB-CR2000 (platin resistant) tumor cells were inoculated subcutaneously at the right flank of each mouse. Mice were dosed through the lateral tail vein under sterile conditions in a volume of […] of phosphate-buffered saline (PBS).

[8] = system: 4T1 TAMs; experiment: Activity against 4T1 TAMs in vivo (FACS of tumors); parameters: species or system rats
Text: Female Foxn1^nu nude rats (Harlan, Inc., Indianapolis, Ind.) on a folate-deficient diet were subcutaneously implanted with 1×10^6 4 T1 tumor cells in the mammary region. When the tumors reached ˜1088 mm^3, the animals (n=3) were intravenously dosed with nothing (Control), 254 nmol/kg of Conjugate 5, 254 nmol/kg of Conjugate 5 plus 127 μmol/kg of EC0923, or 127 μmol/kg of EC0923. Four days later, the entire tumors were harvested, enzymatically digested, and subjected to FACS analysis. The tumor cell suspensions were stained for macrophage markers (CD163, CD11b), cell viability (propidium iodide), and late and early apoptosis (Annexin V).

[9] = system: 4T1p tumor cells; experiment: XTT cell viability assay, 4T1p; type: cell-based, mouse; conditions: 2 hours exposure up to 100 nM, 96 hour chase
Method: as §3, §4

T1 sequence (P15328 25-234): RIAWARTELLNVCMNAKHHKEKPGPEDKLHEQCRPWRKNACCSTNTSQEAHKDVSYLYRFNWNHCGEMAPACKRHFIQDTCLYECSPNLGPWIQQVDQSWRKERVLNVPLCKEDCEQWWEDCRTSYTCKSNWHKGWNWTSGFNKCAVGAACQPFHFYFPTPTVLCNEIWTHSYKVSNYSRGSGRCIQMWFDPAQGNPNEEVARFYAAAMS

SMILES: C=C1C[C@H]2C=Nc3cc(OCCCCCOc4cc(N)c(C(=O)N5CC(=C)C[C@H]5C5OCCN5C(=O)OCC(C)(C)SSCCC(=O)NCCNC(=O)CCOCCOCCOCCOCCNC(=O)CCN5C(=O)CC(SC[C@H](NC(=O)[C@H](CC(=O)O)NC(=O)[C@H](CC(=O)O)NC(=O)[C@H](CCCNC(=N)N)NC(=O)[C@H](CC(=O)O)NC(=O)CC[C@H](NC(=O)c6ccc(NCc7cnc8nc(N)[nH]c(=O)c8n7)cc6)C(=O)O)C(=O)O)C5=O)cc4OC)c(OC)cc3C(=O)N2C1 (stereo partly shown) [Conjugate 5]
- relative binding affinity toward the folate receptor, fold lower than that of folic acid [1]: ~1.9 fold
- body weight [2]: significant weight loss
- complete responders [2]: no complete responders
- tumor sensitivity / tumor growth [2]: partial sensitivity
- TNBC PDX tumor size compared to untreated control [3]: decreased TNBC PDX tumor size
- cure (number of mice) ([4]; 0.3 μmol/kg BIW for two weeks, n=7): 7
- TNBC PDX tumor size compared to untreated control ([4]; Conjugate 5 0.3 μmol/kg BIW two weeks, EC1456 2.0 μmol/kg BIW two weeks): decreased TNBC PDX tumor size
- DNA crosslinking, reduced form ([5]; treated with DTT): can then crosslink with DNA
- DNA crosslinking, intact conjugate ([5]; without DTT): not able to crosslink DNA
- activity in the presence of excess folic acid ([6]; excess folic acid): partially reversible
- IC50 ([6]; read-out: relative IC50, inhibition of cell proliferation): ~8.7 nM
- cure (number of mice) [7]: 4
- anti-TAM activity in presence of 500-fold excess of EC0923 ([8]; 254 nmol/kg Conjugate 5 plus 127 μmol/kg EC0923, single i.v. dose): not blocked
- effect against FR− cell populations including CD163-CD11b+ 4T1 TAMs and 4T1 tumor cells ([8]; 254 nmol/kg, single i.v. dose): no effect
- effect on CD163+CD11b+ TAM population in 4T1 tumors ([8]; single i.v. administration, Conjugate 5 254 nmol/kg, EC0923 127 μmol/kg, tumors harvested four days later, n=3): significantly decrease
- activity against FRα-negative 4T1p tumor cell in-vitro [9]: completely inactive
